Patent publication US10035760B2, “Inhibitors of human immunodeficiency virus replication” (priority 2013, dated 2018)
pEC50: −log10 of the molar value. Like-named read-outs stand apart in the source and are kept apart here.

Test system: recombinant NL4-3 virus (Renilla luciferase) in MT-2 cells
Assay: HIV cell culture assay (antiviral activity, luciferase readout in infected MT-2 cells)
Format: cell-based
Settings: Renilla
In short: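 Nef-deleted NL4-3 carrying Renilla luciferase, produced by 293T transfection, used to infect MT-2 cells for 4–5 days with serial compound dilutions. Live-cell luciferase signal read as infection marker; EC50 from exponential median-effect equation.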

[1] = NL43, read-out: Activity, antiviral activity class, recombinant NL4-3 Renilla luciferase virus in MT-2 cells
[2] = NL43, recombinant NL4-3 Renilla luciferase virus in MT-2 cells

Compound: COc1ccccc1S(=O)(=O)NC(=O)N[C@@H](Cc1ccccc1)C(=O)N(C)c1ccc2c(c1)OCO2 [Example 108, (S)—N-(benzo[d][1,3]dioxol-5-yl)-2-(3-((2-methoxyphenyl)sulfonyl)ureido)-N-methyl-3-phenylpropanamide]
- pEC50 [1]: 6.00 to 7.00

Compound: CN(C(=O)[C@H](Cc1ccccc1)NC(=O)NS(=O)(=O)c1ccccc1-c1cccnc1)c1ccc2c(c1)OCO2 [Example 128, (S)—N-(benzo[d][1,3]dioxol-5-yl)-N-methyl-3-phenyl-2-(3-((2-(pyridin-3-yl)phenyl)sulfonyl)ureido)propanamide]
- pEC50 [1]: 5.00 to 6.00

Compound: COc1ccc(N(Cc2ccncc2)C(=O)[C@H](Cc2ccccc2)NC(=O)NS(=O)(=O)c2ccccc2C)cc1 [Example ZY-4, (S)—N-(4-methoxyphenyl)-3-phenyl-N-(pyridin-4-ylmethyl)-2-(3-(o-tolylsulfonyl)ureido)propanamide]
- pEC50 [1]: 5.00 to 6.00

Compound: Cc1ccccc1S(=O)(=O)NC(=O)N[C@@H](Cc1ccccc1)C(=O)N1CCc2cc(S(=O)(=O)N(C)C)ccc21 [Example 185, (S)—N,N-dimethyl-1-(3-phenyl-2-(3-(o-tolylsulfonyl)ureido)propanoyl)indoline-5-sulfonamide]
- pEC50 [1]: 5.00 to 6.00

Compound: CN(C(=O)[C@H](Cc1cc(F)cc(F)c1)NC(=O)NS(=O)(=O)c1ccccc1F)c1ccc2scnc2c1 [Example ZY-16, (S)—N-(benzo[d]thiazol-5-yl)-3-(3,5-difluorophenyl)-2-(3-((2-fluorophenyl)sulfonyl)ureido)-N-methylpropanamide]
- pEC50 [1]: > 7.00

Compound: COc1ccc(N(C)C(=O)[C@@H](NC(=O)NS(=O)(=O)c2ccccc2C)[C@@H](C)c2ccccc2)cc1 [Example 197, (2S,3S)—N-(4-methoxyphenyl)-N-methyl-3-phenyl-2-(3-(o-tolylsulfonyl)ureido)butanamide]
- pEC50 [1]: 4.00 to 5.00
- pEC50 [2]: 4.94

Compound: Cc1ccccc1S(=O)(=O)NC(=O)N[C@@H](Cc1cccc2ccccc12)C(=O)N(C)c1ccc2c(c1)OCO2 [Example 83, (S)—N-(benzo[d][1,3]dioxol-5-yl)-N-methyl-3-(naphthalen-1-yl)-2-(3-(o-tolylsulfonyl)ureido)propanamide]
- pEC50 [1]: 5.00 to 6.00
- pEC50 [2]: 5.37

Compound: Cc1ccccc1S(=O)(=O)NC(=O)N[C@@H](Cc1ccccc1)C(=O)N(C)c1ccc2cccnc2c1 [Example CA-98, (S)—N-methyl-3-phenyl-N-(quinolin-7-yl)-2-(3-(o-tolylsulfonyl)ureido)propanamide]
- pEC50 [1]: 6.00 to 7.00
- pEC50 [2]: 6.92

Compound: COc1ccc(N(CCc2ccccc2)C(=O)[C@H](Cc2ccccc2)NC(=O)NS(=O)(=O)c2ccccc2C)cc1 [Example ZY-5, (S)—N-(4-methoxyphenyl)-N-phenethyl-3-phenyl-2-(3-(o-tolylsulfonyl)ureido)propanamide]
- pEC50 [1]: 4.00 to 5.00
- pEC50 [2]: 4.94

Compound: Cc1ccccc1S(=O)(=O)NC(=O)N[C@@]1(C(=O)N(C)c2ccc3c(c2)OCO3)C[C@H]1c1ccccc1 [Example 79, (1S,2S)—N-(benzo[d][1,3]dioxol-5-yl)-N-methyl-2-phenyl-1-(3-(o-tolylsulfonyl)ureido)cyclopropanecarboxamide]
- pEC50 [1]: 4.00 to 5.00

Compound: COc1ccc(OC)c(S(=O)(=O)NC(=O)N[C@@H](Cc2ccccc2)C(=O)N(C)c2ccc3c(c2)OCO3)c1 [Example 30, (S)—N-(benzo[d][1,3]dioxol-5-yl)-2-(3-((2,5-dimethoxyphenyl)sulfonyl)ureido)-N-methyl-3-phenylpropanamide]
- pEC50 [1]: > 7.00

Compound: Cc1ccccc1S(=O)(=O)NC(=O)N[C@@H](Cc1cccc(C(F)(F)F)c1)C(=O)N(C)c1ccc2c(c1)OCO2 [Example 71, (S)—N-(benzo[d][1,3]dioxol-5-yl)-N-methyl-2-(3-(o-tolylsulfonyl)ureido)-3-(3-(trifluoromethyl)phenyl)propanamide]
- pEC50 [1]: 6.00 to 7.00

Compound: Cc1ccc(N(C)C(=O)[C@H](Cc2ccccc2)NC(=O)NS(=O)(=O)c2ccccc2C)cc1 [Example CA-82, (S)—N-methyl-3-phenyl-N-(p-tolyl)-2-(3-(o-tolylsulfonyl)ureido)propanamide]
- pEC50 [1]: 6.00 to 7.00

Compound: CN(C(=O)[C@H](Cc1ccccc1)NC(=O)NS(=O)(=O)CCCc1ccccc1)c1ccc2c(c1)OCO2 [Example 25, (S)—N-(benzo[d][1,3]dioxol-5-yl)-N-methyl-3-phenyl-2-(3-((3-phenylpropyl)sulfonyl)ureido)propanamide]
- pEC50 [1]: 6.00 to 7.00
- pEC50 [2]: 6.03

Compound: CN(C(=O)[C@H](Cc1ccccc1)NC(=O)NS(=O)(=O)c1ccccc1OC(F)(F)F)c1ccc2c(c1)OCO2 [Example 14, (S)—N-(benzo[d][1,3]dioxol-5-yl)-N-methyl-3-phenyl-2-(3-((2-(trifluoromethoxy)phenyl)sulfonyl)ureido)propanamide]
- pEC50 [1]: > 7.00

Compound: Cc1ccccc1S(=O)(=O)NC(=O)N[C@@H](Cc1cc(F)cc(F)c1)C(=O)N(C)c1cccc2ncccc12 [Example CA-109, (S)-3-(3,5-difluorophenyl)-N-methyl-N-(quinolin-5-yl)-2-(3-(o-tolylsulfonyl)ureido)propanamide]
- pEC50 [1]: 6.00 to 7.00
- pEC50 [2]: 6.43

Compound: CCN(C(=O)[C@H](Cc1ccccc1)NC(=O)NS(=O)(=O)c1cccc(-c2ccco2)c1)c1ccc(OC)cc1 [Example 149]
- pEC50 [1]: 6.00 to 7.00

Compound: Cc1ccccc1S(=O)(=O)NC(=O)N[C@H](C(=O)N(C)c1ccc2c(c1)OCO2)[C@H]1CCc2ccccc21 [Example 84, (S)—N-(benzo[d][1,3]dioxol-5-yl)-2-((S)-2,3-dihydro-1H-inden-1-yl)-N-methyl-2-(3-(o-tolylsulfonyl)ureido)acetamide]
- pEC50 [1]: 4.00 to 5.00
- pEC50 [2]: 4.66

Compound: Cc1cccc(N(C)C(=O)[C@H](Cc2ccccc2)NC(=O)NS(=O)(=O)c2ccccc2C)c1 [Example 163, (S)—N-methyl-3-phenyl-N-(m-tolyl)-2-(3-(o-tolylsulfonyl)ureido)propanamide]
- pEC50 [1]: 6.00 to 7.00

Compound: C=CCOc1ccc(C[C@H](NC(=O)NS(=O)(=O)c2ccccc2C)C(=O)N(C)c2ccc3c(c2)OCO3)cc1 [Example 58, (S)-3-(4-(allyloxy)phenyl)-N-(benzo[d][1,3]dioxol-5-yl)-N-methyl-2-(3-(o-tolylsulfonyl)ureido)propanamide]
- pEC50 [1]: 5.00 to 6.00

Compound: COc1cc(N(C)C(=O)[C@H](Cc2ccccc2)NC(=O)NS(=O)(=O)c2ccccc2C)cc(OC)c1OC [Example JB-82, (S)—N-methyl-3-phenyl-2-(3-(o-tolylsulfonyl)ureido)-N-(3,4,5-trimethoxyphenyl)propanamide]
- pEC50 [1]: 5.00 to 6.00

Compound: Cc1ccccc1S(=O)(=O)NC(=O)N[C@@H](Cc1ccc(Br)cc1)C(=O)N(C)c1ccc2c(c1)OCO2 [Example 57, (S)—N-(benzo[d][1,3]dioxol-5-yl)-3-(4-bromophenyl)-N-methyl-2-(3-(o-tolylsulfonyl)ureido)propanamide]
- pEC50 [1]: 5.00 to 6.00

Compound: CN(C(=O)[C@H](Cc1ccccc1)NC(=O)NS(=O)(=O)c1cc(Br)ccc1Br)c1ccc2c(c1)OCO2 [Example 12, (S)—N-(benzo[d][1,3]dioxol-5-yl)-2-(3-((2,5-dibromophenyl)sulfonyl)ureido)-N-methyl-3-phenylpropanamide]
- pEC50 [1]: > 7.00

Compound: Cc1ccccc1S(=O)(=O)NC(=O)N[C@@H](Cc1cc(F)c(F)cc1F)C(=O)N(C)c1ccc2c(c1)OCO2 [Example 75, (S)—N-(benzo[d][1,3]dioxol-5-yl)-N-methyl-2-(3-(o-tolylsulfonyl)ureido)-3-(2,4,5-trifluorophenyl)propanamide]
- pEC50 [1]: 6.00 to 7.00
- pEC50 [2]: 6.54

Compound: CN(C(=O)[C@H](Cc1ccccc1)NC(=O)NS(=O)(=O)c1c(F)cccc1F)c1ccc2c(c1)OCO2 [Example 98, (S)—N-(benzo[d][1,3]dioxol-5-yl)-2-(3-((2,6-difluorophenyl)sulfonyl)ureido)-N-methyl-3-phenylpropanamide]
- pEC50 [1]: > 7.00
- pEC50 [2]: 7.05

Compound: Cc1nc2ccc(N(C)C(=O)[C@H](Cc3ccccc3)NC(=O)NS(=O)(=O)c3ccccc3C)cc2o1 [Example CA-86, (S)—N-methyl-N-(2-methylbenzo[d]oxazol-6-yl)-3-phenyl-2-(3-(o-tolylsulfonyl)ureido)propanamide]
- pEC50 [1]: > 7.00

Compound: C=Cc1cccc(C[C@H](NC(=O)NS(=O)(=O)c2ccccc2C=C)C(=O)N(C)c2ccc(OC)cc2)c1 [Example 212, (S)—N-(4-methoxyphenyl)-N-methyl-3-(3-vinylphenyl)-2-(3-((2-vinylphenyl)sulfonyl)ureido)propanamide]
- pEC50 [1]: > 7.00
- pEC50 [2]: 7.24

Compound: CN(C(=O)[C@H](Cc1ccccc1)NC(=O)NS(=O)(=O)c1cccs1)c1ccc2c(c1)OCO2 [Example 31, (S)—N-(benzo[d][1,3]dioxol-5-yl)-N-methyl-3-phenyl-2-(3-(thiophen-2-ylsulfonyl)ureido)propanamide]
- pEC50 [1]: 6.00 to 7.00

Compound: CN(C(=O)[C@H](Cc1ccccc1)NC(=O)NS(=O)(=O)C(C)(C)C)c1ccc2c(c1)OCO2 [Example 46, (S)—N-(benzo[d][1,3]dioxol-5-yl)-2-(3-(tert-butylsulfonyl)ureido)-N-methyl-3-phenylpropanamide]
- pEC50 [1]: 5.00 to 6.00

Compound: Cc1ccccc1S(=O)(=O)NC(=O)N[C@H](C(=O)N(C)c1ccc2c(c1)OCO2)[C@@H](C)c1ccccc1 [Example 65, (2S,3S)—N-(benzo[d][1,3]dioxol-5-yl)-N-methyl-3-phenyl-2-(3-(o-tolylsulfonyl)ureido)butanamide]
- pEC50 [1]: 5.00 to 6.00
- pEC50 [2]: 5.17

Compound: CCc1ccc(C)c(S(=O)(=O)NC(=O)N[C@@H](Cc2ccccc2)C(=O)N(CC)c2ccc(OC)cc2)c1 [Example 144, (S)—N-ethyl-2-(3-((5-ethyl-2-methylphenyl)sulfonyl)ureido)-N-(4-methoxyphenyl)-3-phenylpropanamide]
- pEC50 [1]: 6.00 to 7.00
- pEC50 [2]: 6.21

Compound: Cc1ccccc1S(=O)(=O)NC(=O)N[C@@H](Cc1cc(F)cc(F)c1)C(=O)N(C)c1cc2ccccc2cn1 [Example CA-105, (S)-3-(3,5-difluorophenyl)-N-(isoquinolin-3-yl)-N-methyl-2-(3-(o-tolylsulfonyl)ureido)propanamide]
- pEC50 [1]: 6.00 to 7.00
